Test results from publication PMC5434028, “Structure-based prediction and identification of 4-epimerization activity of phosphate sugars in class II aldolases” (Scientific Reports, 2017).

Biological target: T1, RhaD (L-rhamnulose-1-phosphate aldolase) (Escherichia coli, UniProt P32169)
T1 sequence (P32169 1-274): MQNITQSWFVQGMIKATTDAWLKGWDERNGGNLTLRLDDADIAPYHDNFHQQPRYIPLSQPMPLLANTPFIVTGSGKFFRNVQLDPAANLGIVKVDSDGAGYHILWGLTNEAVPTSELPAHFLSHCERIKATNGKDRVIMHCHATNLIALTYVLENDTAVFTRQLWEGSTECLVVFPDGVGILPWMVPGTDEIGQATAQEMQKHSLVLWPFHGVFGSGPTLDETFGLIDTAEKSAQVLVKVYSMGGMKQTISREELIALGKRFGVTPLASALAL
Test: aldol condensation, dephosphorylation, Bio-LC of sorbose and psicose
Format: biochemical
Details: 50 mM Tris-HCl pH 7.0, 50 °C

**Q.** Which “aldol condensation, dephosphorylation, Bio-LC of sorbose and psicose” value (co-substrate DHAP) does the source give for `O=C[C@H](O)CO` [GA] here?
**A.** The value was “S1P and P1P were condensed from DHAP and GA using RhaD”.

**Q.** Which “aldol condensation, dephosphorylation, Bio-LC of sorbose and psicose” value (co-substrate GA) does the source give for `O=C(CO)COP(=O)(O)O` [dihydroxyacetone phosphate] here?
**A.** The value was “S1P and P1P were condensed from DHAP and GA using RhaD”.
